Converted amounts (≈) assume the structure as drawn. Counter-ions that a name gives are not always drawn.

This is an account of results in patent publication US20150352038A1, “A DOSAGE FORM FOR ADMINISTERING AN ACTIVE PRINCIPLE FOR ACCELERATED SLEEP INDUCTION AND/OR FOR TREATING SLEEP DISORDERS AND/OR FOR TREATING A CENTRAL NERVOUS SYSTEM DISORDER” (priority 2013, published 2015).

The conditions of series [1]: cited from earlier work.
For series [2] the following is noted: oral; % of the ingested/administered dose; cited from earlier work.
A short description of series [3]: Bioavailability after oral administration. It is filed as in vivo.
The conditions of series [4]: cited from earlier work. The source holds these as a separate data set.
The nature of series [5]: Time to onset of calming / sedative / sleep-inducing effect. The series is classed as in vivo. Particulars: hydro-alcoholic solution of the invention via the oral mucous membrane.
The subject of a further series is plasma proteins. The note with it: cited from earlier work; for bonded to plasma proteins: in the blood stream.
A short description of series [6]: Stability in alcohol solution. The note with it: degree of alcohol starting from 35°. It is filed as physicochemical. As to the method: In the studies, the doses normally administered orally, at bedtime, varied over the range 0.3 mg to 5 mg. High doses of Melatonin may exert a negative paradoxical action that propagates to phases that are not phases of responding to Melatonin.

The conditions of series [7]: administered orally, doses of 5 mg or 10 mg; cited from earlier work.

Take `COc1ccc2cccc(CCNC(C)=O)c2c1` [Agomelatine]: the “half-life in the organism” value in series [1] (in vivo) is given as “less than 2 h”. Moreover, the “bioavailability when taken orally” value in series [2] is “less than 5%”. The “fraction of the orally administered dose destroyed / lost” value in series [3] was 95%.
As to `Cc1nnc2n1-c1sc(Br)cc1C(c1ccccc1Cl)=NC2` [Brotizolam], in series [1] (in vivo), the “half-life in the organism” value is reported as 4.4 h. The “bioavailability when taken orally” value in series [2] is listed as “around 50%”.
As for `CN1CCC(=C2c3ccccc3C=Cc3ccccc32)CC1` [Cyproheptadine], the “half-life, compared in words” value in series [1] (compared with Doxylamine) is given as “longer than the half-life of Doxylamine”. For the same compound, the “bioavailability when taken orally” value in series [2] is reported as about 25%.
For the compound `CN(C)CCOC(C)(c1ccccc1)c1ccccn1` (stereo not shown) [Doxylamine], in series [1] (in vivo), the “half-life in the organism” value is listed as “around 3.5 h”. Also, the “bioavailability when taken orally” value in series [2] is given as 24.7%. Also, the “solubility in ethanol, in words” value in series [4] (ethanol) was “easily soluble in ethanol”. Also, the “time until calming effect / drowsiness appears, in words” value in series [5] is reported as “within a few minutes”.
As for `CN1CCN(C(=O)O[C@H]2c3nccnc3C(=O)N2c2ccc(Cl)cn2)CC1` [Eszopiclone], the “half-life in the organism” value in series [1] (in vivo) was 6 h. Also, the “bonded to plasma proteins” value with plasma proteins is 60%.
For `COc1ccc2[nH]cc(CCNC(C)=O)c2c1` [Melatonin, N-Acetyl-5-Methoxytryptamine], the half-life result in series [1] (in vivo) was “greater than 50 min”. Besides, the “bioavailability when taken orally” value in series [2] is about 15%. In addition, the “stability in alcohol solution” value in series [6] is “increases with increasing degree of alcohol”. The “solubility in ethanol, in words” value in series [4] (ethanol) is “very soluble in ethanol”.
Turning to `Cc1ncc2n1-c1ccc(Cl)cc1C(c1ccccc1F)=NC2` [Midazolam], the “bioavailability when taken orally” value in series [2] is 36%. In addition, the “solubility in ethanol, in words” value in series [4] (ethanol) is reported as “freely soluble in ethanol”. For the same compound, in series [4] (water), the solubility in water is reported as 0.024 mg/mL (≈ 0.0737 mM). For the same compound, in the series with plasma proteins, the “bonding to plasma proteins, in words” value is given as “bonds strongly to plasma proteins”.
Turning to `Cc1ccc(-c2nc3ccc(C)cn3c2CC(=O)N(C)C)cc1` [Zolpidem tartrate], the “solubility in water and in ethanol/alcohol, in words” value in series [4] was “less soluble in water and in ethanol than Zolpidem base”.
For `Cc1ccc(-c2nc3ccc(C)cn3c2CC(=O)N(C)C)cc1` [Zolpidem], the “half-life in the organism” value in series [1] (in vivo) is 2 to 3 h. In addition, the “bioavailability when taken orally” value in series [2] is listed as at most 70%. Besides, in series [4] (ethanol), the solubility in ethanol is 50 mg/mL (≈ 163 mM) and the “solubility in ethanol, in words” value is recorded as “quite soluble in ethanol”. Besides, the “bonded to plasma proteins” value in the series on plasma proteins is 92%. Also, the “time until effect is perceptible” value in series [7] is “at least 15 min”. Besides, in series [5], the “time until calming effect / drowsiness appears, in words” value is “within only a few minutes”.
For `CN1CCN(C(=O)OC2c3nccnc3C(=O)N2c2ccc(Cl)cn2)CC1` (stereo not shown) [Zopiclone], the “solubility in water and in ethanol/alcohol, in words” value in series [4] is “not very soluble in water and alcohol”.
For the compound “(S)—N-(2-(1,6,7,8-tetrahydro-2H-indeno-(5,4)furan-8-yl)ethyl)propionamide [Ramelteon]”, the “bioavailability when taken orally” value in series [2] is 1.8%. In addition, the “solubility in ethanol, in words” value in series [4] (ethanol) is “very easily soluble in ethanol”. Also, the “bonded to plasma proteins” value in the series on plasma proteins is reported as 82%. In addition, the “fraction of the orally administered dose destroyed / lost” value in series [3] turned out to be 98.2%.
